Assay results taken from US20230348450A1, “CARBOXYLIC ACID-CONTAINING COMPOUNDS AS MODULATORS OF BIS-PHOSPHOGLYCERATE MUTASE FOR THE TREATMENT OF SICKLE CELL DISEASE” (Genzyme Corporation, priority 2020, published 2023).

target: hBPGM (Homo sapiens (Human), UniProt P07738); assay: BPGM Synthase Assay; assay type: biochemical; conditions: Table 6 additional results; read-out: huBPGM: synthase Enzyme IC50
Method: Example B1. BPGM Synthase Assay
The following materials were used in this assay: deionized water; Bisphosphoglycerate mutase (BPGM; Standard Buffer: 50 mM Tris, 0.01% Tween 20, pH 7.4); BPGM Reaction Buffer (50 mM Tris, 0.01% Tween 20, 3.23 mM KH2PO4, pH 7.4); dithiothreitol (DTT; Stock solution: 100 mM in Standard Buffer); 384-Well Black Assay Plate (Corning, P/N 3575); DMSO; BPGM Stock Solution (500 nM in BPGM Standard Buffer); Glyceraldehyde 3-phosphate dehydrogenase (GAPDH; Stock Solution: 40 U/mL in 20 mM Tris-HCL Buffer with 20% Glycerol, 1 mM EDTA, 1 mM DTT); Glyceraldehyde 3-phosphate (GAP; Stock Solution: 20 mM in BPGM Standard Buffer); 3-PG Stock Solution (500 μM in BPGM Standard Buffer); Nicotinamide adenine dinucleotide (NAD; Stock Solution: 50 mM in BPGM Standard Buffer); Koningic Acid (1 mM Stock in DMSO); Resazurin Stock Solution (10 mM in DMSO); Diaphorase Stock Solution (40 U/mL in BPGM Standard Buffer); DTT Reaction Buffer (1 mM DTT in BPGM Reaction Buffer); Enzyme Solution (5 nM BPGM, 0.4 U/mL GAPDH in DTT Reaction Buffer); GAPDH Solution (0.4 U/mL GAPDH in DTT Reaction Buffer); Substrate Solution (2 mM NAD, 20 μM 3PG, 800 μM GAP in DTT Reaction Buffer); and Resazurin Solution (5 U/mL Diaphorase, 500 μM Resazurin in BPGM Standard Buffer).
To the assay plate was added Enzyme Solution (20 uL) to columns 2-22 and 24 of the assay plate. To columns 1 and 23 was added GAPDH Solution (20 uL). A separate compound plate was prepared at the desired concentrations and all wells were normalized with 5% DMSO. The compound plate was incubated for 30 minutes at RT. Next, the substrate solution (20 μL) was dispensed to all reaction wells and the plate was incubated for 60 minutes at RT. Koningic acid (1 μL) was added and the plate was incubated for 10 minutes at RT. During this time period, the NADH fluorescence was read at ex: 360/em: 460. Next, Resazurin Solution (10 μL) was added to all reaction wells and the plate was incubated for 30 minutes at RT. The resorufin fluorescence was then read at ex:544/em:590.

hBPGM, sequence (P07738 whole entry, looked up): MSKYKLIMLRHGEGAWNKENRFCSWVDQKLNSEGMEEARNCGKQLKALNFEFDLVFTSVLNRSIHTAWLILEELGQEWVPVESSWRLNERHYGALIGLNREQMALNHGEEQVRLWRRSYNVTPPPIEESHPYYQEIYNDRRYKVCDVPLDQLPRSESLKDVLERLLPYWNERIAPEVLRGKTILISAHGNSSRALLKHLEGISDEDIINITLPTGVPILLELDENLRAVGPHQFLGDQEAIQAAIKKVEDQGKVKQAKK

Row | Structure (SMILES) | IC50
1 | Cc1nc(Cc2ccccc2)sc1-c1csc(-c2cc(O)c(C(=O)O)cc2F)n1 [Example 182] | 560 nM
2 | Cc1nc(CNC(=O)c2ccon2)sc1-c1csc(-c2cc(O)c(C(=O)O)cc2F)n1 [Example 152] | 67 nM
3 | Cc1nc(CNC(=O)C(C)(C)C)sc1-c1cccc(-c2ccc(C(=O)O)c(O)c2)c1 [Example 81] | 450 nM
4 | Cc1nc(COc2ccn(C)n2)sc1-c1csc(-c2cc(O)c(C(=O)O)cc2F)n1 [Example 219] | 120 nM
5 | COC(=O)NCc1nc(C)c(-c2csc(-c3cc(O)c(C(=O)NCC(=O)O)cc3F)n2)s1 [Example 191] | 780 nM
6 | CC(=O)Nc1cccc(OCc2nc(C)c(-c3csc(-c4cc(O)c(C(=O)O)cc4F)n3)s2)n1 [Example 145] | 250 nM
7 | Cc1nc(COc2ccc(C#N)cn2)sc1-c1cccc(-c2ccc(C(=O)O)c(O)c2)c1 [Example 93] | 3300 nM
8 | Cc1nc(CNC(=O)N(C)C)sc1-c1csc(-c2cc(O)c(C(=O)O)cc2F)n1 [Example 226] | 56 nM
9 | COC(=O)NC(C)c1nc(C)c(-c2csc(-c3cc(O)c(C(=O)O)cc3F)n2)s1 (centres unmarked) [Example 188] | 55 nM
10 | Cc1nc(CO)sc1-c1cccc(-c2ccc(C(=O)NCC(=O)N3CCC(C(=O)O)CC3)cc2)n1 [Example 89] | > 25000 nM
11 | Cc1nc(COc2ccccn2)sc1-c1ccc(-c2ccc(C(=O)O)c(O)c2)s1 [Example 340] | 3600 nM
12 | Cc1nc(Cc2cccc(C#N)c2)sc1-c1cccc(-c2ccc(C(=O)O)c(O)c2)c1 [Example 308] | 1000 nM
13 | Cc1nc(COc2ncc(C(F)(F)F)cn2)sc1-c1cccc(-c2ccc(C(=O)O)cc2)n1 [Example 43] | 23000 nM
14 | Cc1ccc(C#N)c(OCC(=O)N/N=C/c2cccc(-c3cc(O)c(C(=O)O)cc3F)c2)n1 [Example 332] | 450 nM
15 | Cc1nc(Cn2ccccc2=O)sc1-c1cccc(-c2ccc(C(=O)O)c(O)c2)c1 [Example 290] | 2200 nM
16 | Cc1nc(COc2ncccn2)sc1-c1cccc(-c2cc(C(=O)O)nn2C)n1 [Example 27] | 7400 nM
17 | Cc1nc(Cc2cccc(C(F)(F)F)c2)sc1-c1cccc(-c2ccc(C(=O)O)c(O)c2)c1 [Example 317] | 3000 nM
18 | Cc1nc(COc2cnn(C(C)(C)C)c2)sc1-c1cccc(-c2ccc(C(=O)O)cc2)n1 [Example 59] | 970 nM
19 | Cc1nc(CNC(C)c2cccnc2)sc1-c1csc(-c2cc(O)c(C(=O)O)cc2F)n1 (centres unmarked) [Example 170] | 1200 nM
20 | Cc1nc(C)c(CCOc2ccc(C(=O)O)c(O)c2)s1 [Example 336] | > 25000 nM
21 | O=C(O)c1ccc(-c2nc(-c3ccnc(COc4ncccn4)c3)cs2)cc1 [Example 37] | 7600 nM
22 | Cc1nc(C)c(-c2csc(-c3ccc(C(=O)O)cc3)n2)s1 [Example 291] | 3300 nM

Row | Structure (SMILES) | IC50
23 | Cc1nc(Cn2cc(C(F)(F)F)cn2)sc1-c1cccc(-c2ccc(C(=O)O)cc2)n1 [Example 60] | 760 nM
24 | Cc1nc(C)c(C2CCCN(c3ccc(C(=O)O)c(O)c3)C2)s1 (centres unmarked) [Example 122] | > 250000 nM
25 | Cc1nc(COc2ccc(F)cn2)sc1-c1cccc(-c2ccc(C(=O)O)c(C(F)F)c2)c1 [Example 29] | 1800 nM
26 | Cc1nc(CNC(C)C)sc1-c1csc(-c2cc(O)c(C(=O)O)cc2F)n1 [Example 176] | 890 nM
27 | Cc1nc(COc2ncccn2)sc1-c1cccc(-c2ccc(C(=O)NC(CC(=O)O)c3ccccc3)cc2)n1 (centres unmarked) [Example 35] | 2600 nM
28 | Cc1nc(C)c(-c2nc(-c3cc(O)c(C(=O)O)cc3F)sc2C)s1 [Example 241] | 21000 nM
29 | Cc1nc(COc2ncccn2)sc1-c1nc(-c2ccc(C(=O)O)cc2)cs1 [Example 34] | 340 nM
30 | Cc1nc(C)c(/C=C/c2ccc(C(=O)O)c(O)c2)s1 [Example 333] | 11000 nM
31 | Cc1ccc(C#N)c(OCC(=O)N2CCC(c3cccc(-c4ccc(C(=O)O)c(O)c4)c3)C2)n1 (centres unmarked) [Example 328] | 45000 nM
32 | Cc1nc(COC2CCCCO2)sc1-c1cccc(-c2ccc(C(=O)O)cc2)n1 (centres unmarked) [Example 55] | 380 nM
33 | Cc1nc(C)c(-c2ccnc(-c3ccc(C(=O)O)c(O)c3)c2)s1 [Example 310] | 2000 nM
34 | Cc1nc(CNC(=O)C(C)(C)C)sc1-c1cccc(-c2cc(O)c(C(=O)O)cc2F)n1 [Example 150] | 500 nM
35 | Cc1nc(COc2ncccn2)sc1-c1cccc(-c2ccc(C(=O)O)o2)n1 [Example 33] | 11000 nM
36 | Cc1nc(C)c(COc2ccc(C(=O)O)c(O)c2)s1 [Example 338] | > 25000 nM
37 | Cc1nc(CO[C@@H]2CCCOC2)sc1-c1cccc(-c2ccc(C(=O)O)cc2)c1 [Example 47] | 980 nM
38 | O=C(O)c1ccc(-c2nc(-c3ccnc(CO)c3)cs2)cc1 [Example 38] | > 25000 nM
39 | Cc1nc(COc2ccc(F)cn2)sc1-c1cnn(-c2ccc(C(=O)O)cc2)n1 [Example 19] | 850 nM
40 | Cc1nc(CC2CCCCC2)sc1-c1cccc(-c2ccc(C(=O)O)c(O)c2)c1 [Example 313] | 9100 nM
41 | Cc1nc(COc2ccc(C(F)(F)F)nn2)sc1-c1cccc(-c2ccc(C(=O)O)cc2)n1 [Example 48] | 1900 nM
42 | Cc1nc(Cc2ccccc2C(F)(F)F)sc1-c1cccc(-c2ccc(C(=O)O)c(O)c2)c1 [Example 320] | 7000 nM
43 | Cc1nc(C)c(-c2ccc(O)c(-c3ccc(C(=O)O)cc3)c2)s1 [Example 304] | 54000 nM
44 | Cc1nc(C)c(-c2csc(-c3ccc(C(=O)O)c(O)c3)n2)s1 [Example 315] | 1400 nM

Row | Structure (SMILES) | IC50
45 | Cc1nc(C)c(-c2cccc(-c3ccc(C(=O)O)cc3)c2C)s1 [Example 306] | > 250000 nM
46 | Cc1nc(COc2ccc(F)cn2)sc1-c1ccc(-c2ccc(C(=O)O)c(O)c2)s1 [Example 341] | 4100 nM
47 | Cc1nc(COCC2CCCCO2)sc1-c1cccc(-c2ccc(C(=O)O)cc2)c1 (centres unmarked) [Example 45] | 1400 nM
48 | Cc1nc(C)c(-c2cccc(-c3ccc(C(=O)O)cc3)c2)s1 [Example 326] | 6400 nM
49 | Cc1nc(COc2ncccn2)sc1-c1cccc(-c2cnc(C(=O)O)nc2)n1 [Example 85] | > 25000 nM
50 | Cc1nc(C)c(-c2cncc(-c3ccc(C(=O)O)c(O)c3)c2)s1 [Example 299] | 25000 nM
51 | Cc1nc(CCC(N)=O)sc1-c1cccc(-c2ccc(C(=O)O)c(O)c2)c1 [Example 265] | 7800 nM
52 | CCc1nc(C)c(-c2cccc(-c3ccc(C(=O)O)c(O)c3)c2)s1 [Example 323] | 1600 nM
53 | Cc1nc(C)c(-c2cc(-c3ccc(C(=O)O)cc3)ccc2O)s1 [Example 301] | > 250000 nM
54 | Cc1ccc(C#N)c(OCCn2cc(-c3cccc(-c4ccc(C(=O)O)c(O)c4)c3)cn2)n1 [Example 110] | 8800 nM
55 | Cc1ccc(C#N)c(OCc2nc(C)c(-c3cccc(-c4ccc(C(=O)O)c(O)c4)c3)s2)n1 [Example 268] | 1200 nM
56 | Cc1nc(C)c(-c2csc(-c3ccc(O)c(C(=O)O)c3)n2)s1 [Example 321] | 7300 nM
57 | COC(=O)NCc1cc(C)c(-c2csc(-c3cc(O)c(C(=O)O)cc3F)n2)s1 [Example 179] | 600 nM
58 | Cc1nc(COc2ncccn2)sc1-c1cccc(-c2ccc(C(=O)N3CCC(OCC(=O)O)CC3)cc2)n1 [Example 84] | > 25000 nM
59 | Cc1nc(COc2ccccn2)sc1-c1cccc(-c2ccc(C(=O)O)cn2)c1 [Example 69] | 5500 nM
60 | Cc1nc(COc2ncccn2)sc1-c1cccc(-c2ccc(C(=O)O)c(C(F)F)c2)n1 [Example 54] | 180 nM
61 | Cc1nc(COC(=O)N(C)C)sc1-c1cccc(-c2ccc(C(=O)O)cc2)n1 [Example 64] | 910 nM
62 | Cc1nc(C(C)C)sc1-c1cccc(-c2ccc(C(=O)O)c(O)c2)c1 [Example 324] | 2300 nM
63 | COC(=O)NCc1ccc(-c2csc(-c3cc(O)c(C(=O)O)cc3F)n2)c(C)n1 [Example 206] | 2000 nM
64 | Cc1ccc(C#N)c(OCCc2cnn(-c3cccc(-c4ccc(C(=O)O)c(O)c4)c3)c2)n1 [Example 303] | 17000 nM
65 | Cc1nc(CN2CCOCC2=O)sc1-c1cccc(-c2ccc(C(=O)O)c(O)c2)c1 [Example 261] | 20000 nM

target: human Bisphosphoglycerate mutase (hBPGM) (Homo sapiens (Human), UniProt P07738); assay: BPGM Phosphatase Assay; assay type: biochemical; conditions: Table 6 additional results; read-out: huBPGM: phosphatase Enzyme EC50
Method: Solutions of the test compounds were then added to the plate and the DMSO content was normalized across the plate. The plate was incubated at RT for 15 min. Next, the substrate 2,3-BPG (5 μL) was added to all the wells, and the plate was sealed and incubated for 24 hr at RT. After incubation, BIOMOL green dye (40 μL) was added to all the wells, the plate was shaken to mix, and the plate was incubated at RT for 20-30 min.

human Bisphosphoglycerate mutase (hBPGM), sequence (P07738 whole entry): as the sequence (P07738 whole entry, looked up) above

Row | Structure (SMILES) | EC50
66 | Cc1nc(Cc2ccccc2)sc1-c1csc(-c2cc(O)c(C(=O)O)cc2F)n1 [Example 182] | 50 nM
67 | Cc1nc(CNC(=O)c2ccon2)sc1-c1csc(-c2cc(O)c(C(=O)O)cc2F)n1 [Example 152] | 40 nM
68 | Cc1nc(CNC(=O)C(C)(C)C)sc1-c1cccc(-c2ccc(C(=O)O)c(O)c2)c1 [Example 81] | 1100 nM
69 | Cc1nc(COc2ccn(C)n2)sc1-c1csc(-c2cc(O)c(C(=O)O)cc2F)n1 [Example 219] | 65 nM
70 | COC(=O)NCc1nc(C)c(-c2csc(-c3cc(O)c(C(=O)NCC(=O)O)cc3F)n2)s1 [Example 191] | 570 nM
71 | CC(=O)Nc1cccc(OCc2nc(C)c(-c3csc(-c4cc(O)c(C(=O)O)cc4F)n3)s2)n1 [Example 145] | 50 nM
72 | Cc1nc(COc2ccc(C#N)cn2)sc1-c1cccc(-c2ccc(C(=O)O)c(O)c2)c1 [Example 93] | 270 nM
73 | Cc1nc(CNC(=O)N(C)C)sc1-c1csc(-c2cc(O)c(C(=O)O)cc2F)n1 [Example 226] | 110 nM
74 | COC(=O)NC(C)c1nc(C)c(-c2csc(-c3cc(O)c(C(=O)O)cc3F)n2)s1 (centres unmarked) [Example 188] | 160 nM
